As usually defined, the IC50 is the concentration that inhibits the measured activity by half.

One assay relates to Aβ1-42 production. The experiment in a line: Cellular assay for inhibition of Aβ1-42 production (H4 APP751 SWE clone 8.20). The class given is cell-based. The following applies: 19 h, H4 APP751 SWE clone 8.20 cells, 19 h incubation; class symbols; read-out: Activity Rating (Aβ42 cellular IC50). Put shortly:
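19 h cell treatment, 37 °C/5% CO2. Detection of secreted Aβ42 in the cell plate: 565 (Aβ42-specific, Wallac) and 26D6 (N-terminal, APC), overnight 4 °C. IC50 from fitted curves.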
As for `CNc1nc(Nc2ccc(-n3cnc(C)n3)c(OC)c2)nc2c1CC[C@@H]2c1cccc(OC)c1` [Example 272B, (R)—N2-(3-methoxy-4-(3-methyl-1H-1,2,4-triazol-1-yl)phenyl)-7-(3-methoxyphenyl)-N4-methyl-6,7-dihydro-5H-cyclopenta[d]pyrimidine-2,4-diamine], the IC50 fell in the range of 10 to 100 nM.

Take `COc1cc(Nc2nc3c(c(N(C)C)n2)CCC3c2ccc(Cl)cc2)ccc1-n1cnc(Cl)c1` (centres unmarked) [Example 92, N^2-(4-(4-Chloro-1H-imidazol-1-yl)-3-methoxyphenyl)-7-(4-chlorophenyl)-N^4,N^4-dimethyl-6,7-dihydro-5H-cyclopenta[d]pyrimidine-2,4-diamine]: the IC50 lay within 10 to 100 nM.

Take `CCNc1nc(Nc2ccc(-n3cnc(Cl)c3)c(OC)c2)nc2c1CN(CC(F)F)CC2c1ccccc1` (centres unmarked) [Example 197B, N4-ethyl-N2-(3-methoxy-4-(4-chloro-1H-13-imidazol-1-yl)phenyl)-8-phenyl-6-(2,2-difluoroethyl)-5,6,7,8-tetrahydropyrido[4,3-d]pyrimidine-2,4-diamine]: the IC50 is 1.5 to 9.9 nM.

`CNc1nc(Nc2ccc(S(C)(=O)=O)cc2)nc2c1CCC2c1ccccc1` (centres unmarked) [Example 235, N4-methyl-N2-(4-(methylsulfonyl)phenyl)-7-phenyl-6,7-dihydro-5H-cyclopenta[d]pyrimidine-2,4-diamine]: the IC50 was in the range of 100 to 1000 nM.

For the molecule `CNc1nc(Nc2ccc(-n3ncnc3C)c(F)c2)nc2c1CN(S(=O)(=O)C1CC1)CC2c1ccccc1` (centres unmarked) [Example 142, 6-(cyclopropylsulfonyl)-N2-(3-fluoro-4-(5-methyl-1H-1,2,4-triazol-1-yl)phenyl)-N4-methyl-8-phenyl-5,6,7,8-tetrahydropyrido[4,3-d]pyrimidine-2,4-diamine], the IC50 fell in the range of 10 to 100 nM.

In the case of `CCNc1nc(Nc2ccc(-n3ncnc3C)c(F)c2)nc2c1CN(C)CC2c1ccccc1` (centres unmarked) [Example 153, N4-ethyl-N2-(3-fluoro-4-(5-methyl-1H-1,2,4-triazol-1-yl)phenyl)-6-methyl-8-phenyl-5,6,7,8-tetrahydropyrido[4,3-d]pyrimidine-2,4-diamine], the IC50 was 10 to 100 nM.

On to `CNc1nc(Nc2ccc(-n3ncnc3C)c(OC)c2)nc2c1CC[C@@H]2c1ccc(F)cc1` [Example 264B, (R)-7-(4-fluorophenyl)-N2-(3-methoxy-4-(5-methyl-1H-1,2,4-triazol-1-yl)phenyl)-N4-methyl-6,7-dihydro-5H-cyclopenta[d]pyrimidine-2,4-diamine], for which the IC50 lay within 10 to 100 nM.

With `CCNc1nc(Nc2ccc(-n3cnc(Cl)c3)c(OC)c2)nc2c1CN(C)CC2c1ccccc1` (centres unmarked) [Example 151, N2-(4-(4-chloro-1H-imidazol-1-yl)-3-methoxyphenyl)-N4-ethyl-6-methyl-8-phenyl-5,6,7,8-tetrahydropyrido[4,3-d]pyrimidine-2,4-diamine], the IC50 is 1.5 to 9.9 nM.

For the molecule `COc1cc(Nc2ncc3c(n2)C(c2ccccc2)CCC3)ccc1-n1cnc(Cl)c1` (centres unmarked) [Example 125, N-(4-(4-chloro-1H-imidazol-1-yl)-3-methoxyphenyl)-8-phenyl-5,6,7,8-tetrahydroquinazolin-2-amine], the concentration for half-maximal inhibition (IC50) lay in the range of 10 to 100 nM.

With `CCN(C)c1nc(Nc2ccc(-n3cnc(Cl)c3)c(OC)c2)nc2c1COCC2c1ccc(F)cc1` (centres unmarked) [Example 62A, N2-(4-(4-chloro-1H-imidazol-1-yl)-3-methoxyphenyl)-N4-ethyl-8-(4-fluorophenyl)-N4-methyl-7,8-dihydro-5H-pyrano[4,3-d]pyrimidine-2,4-diamine], the IC50 is 1.5 to 9.9 nM.

Staying with this assay, now noted: 19 h, H4 APP751 SWE clone 8.20 cells, 19 h incubation; read-out: Activity Rating (Aβ42 cellular IC50), numeric value.
In the case of `COc1cc(Nc2nc3c(c(N4CCC(=O)C4)n2)CCC3c2ccccc2)ccc1-n1cnc(Cl)c1` (centres unmarked) [Example 206, 1-(2-(4-(4-chloro-1H-imidazol-1-yl)-3-methoxyphenylamino)-7-phenyl-6,7-dihydro-5H-cyclopenta[d]pyrimidin-4-yl)pyrrolidin-3-one], the IC50 was found to be 15 nM.

`COc1cc(Nc2nc3c(c(N4CC(C)(OC)C4)n2)CCC3c2ccc(F)cc2)ccc1-n1cnc(Cl)c1` (centres unmarked) [Example 191B, N-(4-(4-chloro-1H-imidazol-1-yl)-3-methoxyphenyl)-7-(4-fluorophenyl)-4-(3-methoxy-3-methylazetidin-1-yl)-6,7-dihydro-5H-cyclopenta[d]pyrimidin-2-amine]: the IC50 was determined as 96 nM.

Regarding `COc1cc(Nc2nc3c(c(N4CC(OC)C4)n2)CCC3c2ccccc2)ccc1-n1cnc(Cl)c1` (centres unmarked) [Example 183, N-(4-(4-chloro-1H-imidazol-1-yl)-3-methoxyphenyl)-4-(3-methoxyazetidin-1-yl)-7-phenyl-6,7-dihydro-5H-cyclopenta[d]pyrimidin-2-amine], the 50% inhibitory concentration (IC50) came out at 11 nM.

As for `CNc1nc(Nc2ccc(-n3cnc(Cl)c3)c(OC)c2)nc2c1/C(=N/OC)CC2c1ccccc1` (centres unmarked) [Example 201, (E)-2-(4-(4-chloro-1H-imidazol-1-yl)-3-methoxyphenylamino)-4-(methylamino)-7-phenyl-6,7-dihydro-5H-cyclopenta[d]pyrimidin-5-one O-methyl oxime], the IC50 turned out to be 5.3 nM.

The assay is the same for the next values; noted with them: 19 h, H4 APP751 SWE clone 8.20 cells, 19 h incubation; read-out: Activity Rating (Aβ42 cellular IC50), numeric value printed without unit.
For the molecule `CNc1nc(Nc2ccc(-n3cnc(Cl)c3)c(OC)c2)nc2c1CCC2c1ccc(F)cc1` (single isomer, unassigned) [Example 11A, N^2-(4-(4-Chloro-1H-imidazol-1-yl)-3-methoxyphenyl)-7-(4-fluorophenyl)-N^4-methyl-6,7-dihydro-5H-cyclopenta[d]pyrimidine-2,4-diamine], the half-inhibitory concentration (IC50) came to 3.8 nM.

The same assay, now with this note: H4 APP751 SWE clone 8.20 cells, 19 h incubation; class symbols; read-out: Activity Rating (Aβ42 cellular IC50).
Regarding `CNc1nc(Nc2ccc(-n3cnc(Cl)c3)c(OC)c2)nc2c1CCC2c1cc(F)c(F)c(F)c1` (single isomer, unassigned) [Example 103B, N^2-(4-(4-chloro-1H-imidazol-1-yl)-3-methoxyphenyl)-N^4-methyl-7-(3,4,5-trifluorophenyl)-6,7-dihydro-5H-cyclopenta[d]pyrimidine-2,4-diamine], the IC50 was 10 to 100 nM.

In the case of `CCN(C)c1nc(Nc2ccc(-n3cnc(Cl)c3)c(OC)c2)nc2c1CCCC2c1ccccc1` (single isomer, unassigned) [Example 124A, N^2-(4-(4-Chloro-1H-imidazol-1-yl)-3-methoxyphenyl)-N^4-ethyl-N^4-methyl-8-phenyl-5,6,7,8-tetrahydroquinazoline-2,4-diamine], the 50% inhibitory concentration (IC50) lay within 1.5 to 9.9 nM.

As for `COc1cc(Nc2nc3c(c(N(C)C)n2)CCCC3c2ccc(F)cc2)ccc1-n1cnc(Cl)c1` (single isomer, unassigned) [Example 127B, N^2-(4-(4-chloro-1H-imidazol-1-yl)-3-methoxyphenyl)-8-(4-fluorophenyl)-N^4,N^4-dimethyl-5,6,7,8-tetrahydroquinazoline-2,4-diamine], the half-inhibitory concentration (IC50) is 10 to 100 nM.

With `CCNc1nc(Nc2ccc(-n3cnc(Cl)c3)c(OC)c2)nc2c1COC2c1ccc(F)cc1` (single isomer, unassigned) [Example 75B, N^2-(4-(4-chloro-1H-imidazol-1-yl)-3-methoxyphenyl)-N^4-ethyl-7-(4-fluorophenyl)-5,7-dihydrofuro[3,4-d]pyrimidine-2,4-diamine], the IC50 was 10 to 100 nM.

Consider `COc1cc(Nc2nc3c(c(N(C)C)n2)CCC3c2ccc(F)cc2)ccc1-n1cnc(Cl)c1` (single isomer, unassigned) [Example 46A, N^2-(4-(4-chloro-1H-imidazol-1-yl)-3-methoxyphenyl)-7-(4-fluorophenyl)-N^4,N^4-dimethyl-6,7-dihydro-5H-cyclopenta[d]pyrimidine-2,4-diamine], for which the concentration for half-maximal inhibition (IC50) lay within 1.5 to 9.9 nM.

For `CCC1CCCN1c1nc(Nc2ccc(-n3cnc(Cl)c3)c(OC)c2)nc2c1CCC2c1ccc(F)cc1` (single isomer, unassigned) [Example 24, N-(4-(4-chloro-1H-imidazol-1-yl)-3-methoxyphenyl)-4-(2-ethylpyrrolidin-1-yl)-7-(4-fluorophenyl)-6,7-dihydro-5H-cyclopenta[d]pyrimidin-2-amine], the 50% inhibitory concentration (IC50) lay in the range of 10 to 100 nM.

In the case of `CCNc1nc(Nc2ccc(-n3cnc(Cl)c3)c(OC)c2)nc2c1CCN(C(=O)OC)C2c1ccc(F)cc1` (single isomer, unassigned) [Example 170A, methyl 2-(4-(4-chloro-1H-imidazol-1-yl)-3-methoxyphenylamino)-4-(ethylamino)-8-(4-fluorophenyl)-5,6-dihydropyrido[3,4-d]pyrimidine-7(8H)-carboxylate], the IC50 lay in the range of 1.5 to 9.9 nM.

For `COc1cc(Nc2nc3c(c(N(C)C)n2)COCC3c2ccc(F)cc2)ccc1-n1cnc(Cl)c1` (centres unmarked) [Example 61A, N2-(4-(4-chloro-1H-imidazol-1-yl)-3-methoxyphenyl)-8-(4-fluorophenyl)-N4,N4-dimethyl-7,8-dihydro-5H-pyrano[4,3-d]pyrimidine-2,4-diamine], the IC50 lay within 1.5 to 9.9 nM.

For the molecule `CNc1nc(Nc2ccc(-n3cnc(Cl)c3)c(OC)c2)nc2c1CCC2c1cc(F)c(F)c(F)c1` (single isomer, unassigned) [Example 103A, N^2-(4-(4-chloro-1H-imidazol-1-yl)-3-methoxyphenyl)-N^4-methyl-7-(3,4,5-trifluorophenyl)-6,7-dihydro-5H-cyclopenta[d]pyrimidine-2,4-diamine], the half-maximal inhibitory concentration (IC50) was 1.5 to 9.9 nM.

As for `CCNc1nc(Nc2ccc(-n3cnc(Cl)c3)c(OC)c2)nc2c1CN(S(=O)(=O)CC)CC2c1ccccc1` (centres unmarked) [Example 138A, N2-(4-(4-chloro-1H-imidazol-1-yl)-3-methoxyphenyl)-N4-ethyl-6-(ethylsulfonyl)-8-phenyl-5,6,7,8-tetrahydropyrido[4,3-d]pyrimidine-2,4-diamine], the half-inhibitory concentration (IC50) was in the range of 1.5 to 9.9 nM.

The assay is the same for the next values; noted with them: H4 APP751 SWE clone 8.20 cells, 19 h incubation; read-out: Activity Rating (Aβ42 cellular IC50), numeric value.
Take `CCNc1nc(Nc2ccc(-n3cnc(Cl)c3)c(OC)c2)nc2c1CN(CC(F)F)CC2c1ccccc1` (centres unmarked) [Example 197A, N4-ethyl-N2-(3-methoxy-4-(4-chloro-1H-13-imidazol-1-yl)phenyl)-8-phenyl-6-(2,2-difluoroethyl)-5,6,7,8-tetrahydropyrido[4,3-d]pyrimidine-2,4-diamine]: the IC50 came to 60 nM.

The values above are taken from patent US8637525B2, “Compounds for the reduction of beta-amyloid production” (Bristol-Myers Squibb Company, priority 2009, dated 2014).
